Measurements published in patent publication US20220323406A1, “METHODS AND COMPOSITIONS FOR DIFFERENTIATING STEM CELLS” (Massachusetts Institute of Technology, priority 2019, published 2022).

Tests used:
Conditions in all cases: primary screen
[1] = system: ENR+CD organoids (ISC to Paneth cell differentiation); assay: Primary screen: basal (non-stimulated) lysozyme secretion LYZ.NS, 2.5-D 384-well ENR+CD organoid differentiation; assay type: cell-based, mouse
Excerpt: (§1) High-throughput screening.

[2] = system: ENR+CD organoids (ISC to Paneth cell differentiation); assay: Primary screen: CCh-stimulated lysozyme secretion LYZ.S, 2.5-D 384-well ENR+CD organoid differentiation; assay type: cell-based, mouse
Excerpt: as §1

ENR+CD organoids = assay: Primary screen: ATP (CellTiter-Glo 3D, CTG) cell number/viability, 2.5-D 384-well ENR+CD organoids;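 also: compounds given at plating and again on day 3 over a 6-day differentiation from ENR+CV stem-cell-enriched precursors, ATP measured on day 6, plate median as control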

## COc1cc(N2CCC(N3CCN(C)CC3)CC2)ccc1Nc1ncc(Cl)c(Nc2ccccc2P(C)(C)=O)n1 [AP26113]
[1]; dose 0.08 uM
  Dose.FC.LYZ.NS: −0.013 log2 fold change
  Z.LYZ.NS (standard z score): −0.116
[1]; dose 0.40 uM
  Dose.FC.LYZ.NS: −0.062 log2 fold change
  Z.LYZ.NS (standard z score): −0.541
[1]; dose 2.00 uM
  Dose.FC.LYZ.NS: −0.196 log2 fold change
  Z.LYZ.NS (standard z score): −1.706
[1]; dose 10.00 uM
  Dose.FC.LYZ.NS: −0.272 log2 fold change
  Z.LYZ.NS (standard z score): −2.370
[2]; dose 0.08 uM
  Dose.FC.LYZ.S: 0.109 log2 fold change
[2]; dose 0.40 uM
  Dose.FC.LYZ.S: −0.038 log2 fold change
[2]; dose 2.00 uM
  Dose.FC.LYZ.S: −0.244 log2 fold change
[2]; dose 10.00 uM
  Dose.FC.LYZ.S: −0.343 log2 fold change
ENR+CD organoids; dose 0.08 uM
  Dose.FC.CTG: −0.054 log2 fold change
ENR+CD organoids; dose 0.40 uM
  Dose.FC.CTG: 0.061 log2 fold change
ENR+CD organoids; dose 2.00 uM
  Dose.FC.CTG: −0.558 log2 fold change
ENR+CD organoids; dose 10.00 uM
  Dose.FC.CTG: −1.680 log2 fold change

## O=C1NC(=O)/C(=C/c2ccc(-c3ccc(F)cc3O)o2)S1 [AS-252424]
[1]; dose 0.08 uM
  Dose.FC.LYZ.NS: 0.070 log2 fold change
  Z.LYZ.NS (standard z score): 0.609
[1]; dose 0.40 uM
  Dose.FC.LYZ.NS: −0.042 log2 fold change
  Z.LYZ.NS (standard z score): −0.368
[1]; dose 2.00 uM
  Dose.FC.LYZ.NS: −0.080 log2 fold change
  Z.LYZ.NS (standard z score): −0.695
[1]; dose 10.00 uM
  Dose.FC.LYZ.NS: −0.077 log2 fold change
  Z.LYZ.NS (standard z score): −0.671
[2]; dose 0.08 uM
  Dose.FC.LYZ.S: 0.072 log2 fold change
[2]; dose 0.40 uM
  Dose.FC.LYZ.S: −0.008 log2 fold change
[2]; dose 2.00 uM
  Dose.FC.LYZ.S: −0.074 log2 fold change
[2]; dose 10.00 uM
  Dose.FC.LYZ.S: −0.022 log2 fold change
ENR+CD organoids; dose 0.08 uM
  Dose.FC.CTG: 0.139 log2 fold change
  Z.CTG (standard z score): 0.333
ENR+CD organoids; dose 0.40 uM
  Dose.FC.CTG: −0.074 log2 fold change
  Z.CTG (standard z score): −0.176
ENR+CD organoids; dose 2.00 uM
  Dose.FC.CTG: −0.359 log2 fold change
  Z.CTG (standard z score): −0.858
ENR+CD organoids; dose 10.00 uM
  Dose.FC.CTG: −0.204 log2 fold change
  Z.CTG (standard z score): −0.487

## Cc1cc2c(C(C)C)c(O)c(O)c(C=O)c2c(O)c1-c1c(C)cc2c(C(C)C)c(O)c(O)c(C=O)c2c1O [AT101]
[1]; dose 0.08 uM
  Dose.FC.LYZ.NS: −0.049 log2 fold change
  Z.LYZ.NS (standard z score): −0.426
[1]; dose 0.40 uM
  Dose.FC.LYZ.NS: −0.068 log2 fold change
  Z.LYZ.NS (standard z score): −0.592
[1]; dose 2.00 uM
  Dose.FC.LYZ.NS: −0.036 log2 fold change
  Z.LYZ.NS (standard z score): −0.311
[1]; dose 10.00 uM
  Dose.FC.LYZ.NS: −0.052 log2 fold change
  Z.LYZ.NS (standard z score): −0.452
[2]; dose 0.08 uM
  Dose.FC.LYZ.S: 0.004 log2 fold change
[2]; dose 0.40 uM
  Dose.FC.LYZ.S: −0.013 log2 fold change
[2]; dose 2.00 uM
  Dose.FC.LYZ.S: −0.085 log2 fold change
[2]; dose 10.00 uM
  Dose.FC.LYZ.S: −0.061 log2 fold change
ENR+CD organoids; dose 0.08 uM
  Dose.FC.CTG: −0.198 log2 fold change
ENR+CD organoids; dose 0.40 uM
  Dose.FC.CTG: 0.019 log2 fold change
ENR+CD organoids; dose 2.00 uM
  Dose.FC.CTG: −0.216 log2 fold change
ENR+CD organoids; dose 10.00 uM
  Dose.FC.CTG: −0.056 log2 fold change

## CCNC(=O)c1noc(-c2cc(C(C)C)c(O)cc2O)c1-c1ccc(CN2CCOCC2)cc1 [AUY922 (NVP-AUY922)]
[1]; dose 0.08 uM
  Dose.FC.LYZ.NS: −0.144 log2 fold change
  Z.LYZ.NS (standard z score): −1.251
[1]; dose 0.40 uM
  Dose.FC.LYZ.NS: −0.154 log2 fold change
  Z.LYZ.NS (standard z score): −1.343
[1]; dose 2.00 uM
  Dose.FC.LYZ.NS: −0.138 log2 fold change
  Z.LYZ.NS (standard z score): −1.200
[1]; dose 10.00 uM
  Dose.FC.LYZ.NS: −0.153 log2 fold change
  Z.LYZ.NS (standard z score): −1.330
[2]; dose 0.08 uM
  Dose.FC.LYZ.S: −0.209 log2 fold change
[2]; dose 0.40 uM
  Dose.FC.LYZ.S: −0.184 log2 fold change
[2]; dose 2.00 uM
  Dose.FC.LYZ.S: −0.216 log2 fold change
[2]; dose 10.00 uM
  Dose.FC.LYZ.S: −0.214 log2 fold change
ENR+CD organoids; dose 0.08 uM
  Dose.FC.CTG: −1.185 log2 fold change
  Z.CTG (standard z score): −2.830
ENR+CD organoids; dose 0.40 uM
  Dose.FC.CTG: −1.343 log2 fold change
  Z.CTG (standard z score): −3.208
ENR+CD organoids; dose 2.00 uM
  Dose.FC.CTG: −1.137 log2 fold change
  Z.CTG (standard z score): −2.715
ENR+CD organoids; dose 10.00 uM
  Dose.FC.CTG: −1.270 log2 fold change
  Z.CTG (standard z score): −3.032

## C=CC(=O)Nc1cccc(Nc2nc(Nc3ccc(OCCOC)cc3)ncc2F)c1 [AVL-292]
[1]; dose 0.08 uM
  Dose.FC.LYZ.NS: 0.095 log2 fold change
  Z.LYZ.NS (standard z score): 0.831
[1]; dose 0.40 uM
  Dose.FC.LYZ.NS: 0.052 log2 fold change
  Z.LYZ.NS (standard z score): 0.451
[1]; dose 2.00 uM
  Dose.FC.LYZ.NS: −0.112 log2 fold change
  Z.LYZ.NS (standard z score): −0.979
[1]; dose 10.00 uM
  Dose.FC.LYZ.NS: −0.213 log2 fold change
  Z.LYZ.NS (standard z score): −1.858
[2]; dose 0.08 uM
  Dose.FC.LYZ.S: 0.235 log2 fold change
[2]; dose 0.40 uM
  Dose.FC.LYZ.S: 0.106 log2 fold change
[2]; dose 2.00 uM
  Dose.FC.LYZ.S: −0.206 log2 fold change
[2]; dose 10.00 uM
  Dose.FC.LYZ.S: −0.376 log2 fold change
ENR+CD organoids; dose 0.08 uM
  Dose.FC.CTG: 0.217 log2 fold change
  Z.CTG (standard z score): 0.518
ENR+CD organoids; dose 0.40 uM
  Dose.FC.CTG: 0.057 log2 fold change
  Z.CTG (standard z score): 0.135
ENR+CD organoids; dose 2.00 uM
  Dose.FC.CTG: −0.058 log2 fold change
  Z.CTG (standard z score): −0.138
ENR+CD organoids; dose 10.00 uM
  Dose.FC.CTG: −0.778 log2 fold change
  Z.CTG (standard z score): −1.859
